Results published in patent US20030068615A1, “Polypeptides that bind HIV gp120 and related nucleic acids, antibodies, compositions, and methods of use” (priority 1999, published 2003).
Where two headings read alike, the source gives them in different places.

Target: HIV-1LAI envelope gp120 (Human immunodeficiency virus type 1 group M subtype B, UniProt P03377)
Assay type: binding
Settings: for Counts per 20′ Average-background: CCR5 18-mer scan, radiolabeled HIV-1LAI gp120; for number of radioactive decays (counts) counted: human CD4 21-mer scan, empty control 2075
[1] = STRL33 18-mer scan, background subtracted, first of two count columns
[2] = STRL33 18-mer scan, background subtracted, second of two count columns
[3] = CXCR4 18-mer scan, background subtracted, empty control 0
[4] = CXCR4 18-mer scan, empty control 412
[5] = Panel D, 9-mers and 12-mers of CD4, empty control […]
[6] = Panel B, 15-mers and 18-mers of CD4, empty control 575
[7] = Panel E, 9-mers and 12-mers of CD4, empty control 571
[8] = Panel C, 15-mers and 18-mers of CD4, empty control 556
[9] = Panel A, 21-mers of CD4, empty control 515 and 617

MPFNLMKFIRSTHWEYYA [STRL33 segment 245-262]
radioactive counts recorded in twenty minutes [1]: 2171.5 counts
radioactive counts recorded in twenty minutes [2]: 2182.5 counts

MTWGKVTSLLIWVISLLV
radioactive counts recorded in twenty minutes [1]: −0.5 counts
radioactive counts recorded in twenty minutes [2]: −26.5 counts

MVGLILPGIVILSCYCII [CXCR4 segment 205-222]
radioactive counts recorded in twenty minutes [3]: 167 counts
radioactive counts recorded in twenty minutes [4]: 579 counts

MYLVVFVCGLVGNSLVLV [STRL33 segment 37-54]
radioactive counts recorded in twenty minutes [1]: 168.5 counts
radioactive counts recorded in twenty minutes [2]: 235.5 counts

NANFNKIFLPTIYSIIFL [CXCR4 segment 33-50]
radioactive counts recorded in twenty minutes [3]: 173 counts
radioactive counts recorded in twenty minutes [4]: 585 counts

NCKRLKSMTDIYLLNLAI [CCR5 segment 57-74]
Counts per 20′ Average-background (background subtracted): 25 counts per 20′

NDSSQEEHQAFLQFS
Binding Results For Window Length (counts bound-background), 9 (STRL33 amino terminus, 9-mer starting at the first residue of the printed sequence, background subtracted): 180 counts
Binding Results For Window Length (counts bound-background), 12 (STRL33 amino terminus, 12-mer starting at the first residue of the printed sequence, background subtracted): 497 counts
Binding Results For Window Length (counts bound-background), 15 (STRL33 amino terminus, 15-mer starting at the first residue of the printed sequence, background subtracted): 6160 counts

NFPLIIKNL
COUNTS of radiolabeled gp120 retained [5]: 561 counts

NFPLIIKNLKIE
COUNTS of radiolabeled gp120 retained [5]: 647 counts

NFPLIIKNLKIEDSD
COUNTS of radiolabeled gp120 retained [6]: 654 counts

NFPLIIKNLKIEDSDTYI
COUNTS of radiolabeled gp120 retained [6]: 627 counts

NKEAKVSKREKAVWVLNPEAG
number of radioactive decays (counts) counted: 1735 counts

NKIFLPTIYSIIFLTGIV [CXCR4 segment 37-54]
radioactive counts recorded in twenty minutes [3]: 138 counts
radioactive counts recorded in twenty minutes [4]: 550 counts

NLKIEDSDT
COUNTS of radiolabeled gp120 retained [5]: 512 counts

NLKIEDSDTYIC
COUNTS of radiolabeled gp120 retained [5]: 639 counts

NLKIEDSDTYICEVE
COUNTS of radiolabeled gp120 retained [6]: 1160 counts

NLTLALEAKTGKLHQEVNLVV [human CD4 296-316]
number of radioactive decays (counts) counted: 1676 counts

NPIIYAFVGEKFRNYLLV [CCR5 segment 293-]
Counts per 20′ Average-background (background subtracted): 162 counts per 20′

NQKKVEFKI
COUNTS of radiolabeled gp120 retained [7]: 597 counts

NQKKVEFKIDIV
COUNTS of radiolabeled gp120 retained [7]: 532 counts

NQKKVEFKIDIVVLA
COUNTS of radiolabeled gp120 retained [8]: 860 counts

NQKKVEFKIDIVVLAFQK
COUNTS of radiolabeled gp120 retained [8]: 889 counts

NRLDQAMQVTETLGMTHC [CCR5 segment 273-]
Counts per 20′ Average-background (background subtracted): 10 counts per 20′

NSDTHLLQG
COUNTS of radiolabeled gp120 retained [5]: 561 counts

NSDTHLLQGQSL
COUNTS of radiolabeled gp120 retained [5]: 585 counts

NSDTHLLQGQSLTLT
COUNTS of radiolabeled gp120 retained [6]: 631 counts

NSDTHLLQGQSLTLTLES
COUNTS of radiolabeled gp120 retained [6]: 1726 counts

NSIYLVISIFYHKLQSLT [STRL33 segment 49-66]
radioactive counts recorded in twenty minutes [1]: 1255.5 counts
radioactive counts recorded in twenty minutes [2]: 1378.5 counts

NWYFGNFLCKAVHVIYTV
radioactive counts recorded in twenty minutes [3]: 96 counts
radioactive counts recorded in twenty minutes [4]: 508 counts

NYYTSEPCQKINVKQIAA [CCR5 segment 13-30]
Counts per 20′ Average-background (background subtracted): 6 counts per 20′

PFRELLLVLQLALLPAATQGK [human CD4, printed 16-26]
number of radioactive decays (counts) counted: 4356 counts

PFWAYAGIHEWVFGQVMC
radioactive counts recorded in twenty minutes [1]: 7262.5 counts
radioactive counts recorded in twenty minutes [2]: 7537.5 counts

PKLMLSLKLENKEAKVSKREK [human CD4 336-356]
number of radioactive decays (counts) counted: 1656 counts

PLAFTVEKL
COUNTS of radiolabeled gp120 retained [7]: 597 counts

PLAFTVEKLTGS
COUNTS of radiolabeled gp120 retained [7]: 528 counts

PLAFTVEKLTGSGEL
COUNTS of radiolabeled gp120 retained [8]: 612 counts

PLAFTVEKLTGSGELWWQ
COUNTS of radiolabeled gp120 retained [8]: 650 counts

PLAFTVEKLTGSGELWWQAER
COUNTS of radiolabeled gp120 retained [9]: 2647 counts

PLIIKLNKIEDSDTYICEVED
COUNTS of radiolabeled gp120 retained [9]: 20145 counts

PLIIKNLKI
COUNTS of radiolabeled gp120 retained [5]: 697 counts

PLIIKNLKIEDS
COUNTS of radiolabeled gp120 retained [5]: 565 counts

PLIIKNLKIEDSDTY
COUNTS of radiolabeled gp120 retained [6]: 661 counts

PLIIKNLKIEDSDTYICE
COUNTS of radiolabeled gp120 retained [6]: 624 counts
